Reference: PubChem BioAssay (NCI)
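Briefly, cells in 96-well plates were exposed to five compound concentrations for 48 h, and endpoints were estimated by linear interpolation. Abbreviation: GI50, concentration required for 50% inhibition of growth. The concentration for full growth arrest is given as TGI.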

Columns and labels:
Assay in all cases: inhibition of tumour cell growth, NCI panel, 48 h
[1] = system: 786-0 renal
[2] = system: A498 renal
[3] = system: A549 NSCLC
[4] = system: ACHN renal
[5] = system: CAKI-1 renal
[6] = system: CCRF-CEM leukemia
[7] = system: COLO 205 colon
[8] = system: DU-145 prostate
[9] = system: EKVX NSCLC
[10] = system: HCC-2998 colon
[11] = system: HCT-116 colon
[12] = system: HCT-15 colon
[13] = system: HL-60(TB) leukemia
[14] = system: HOP-62 NSCLC
[15] = system: HOP-92 NSCLC
[16] = system: HS 578T breast
[17] = system: IGROV1 ovarian
[18] = system: K-562 leukemia
[19] = system: KM12 colon
[20] = system: LOX IMVI melanoma
[21] = system: M14 melanoma
[22] = system: MALME-3M melanoma
[23] = system: MCF7 breast
[24] = system: MDA-MB-231 breast
[25] = system: MDA-MB-435
[26] = system: MOLT-4 leukemia
[27] = system: NCI-H226 lung
[28] = system: NCI-H23 lung
[29] = system: NCI-H460 lung
[30] = system: NCI/ADR-RES ovarian
[31] = system: OVCAR-3 ovarian
[32] = system: OVCAR-4 ovarian
[33] = system: OVCAR-5 ovarian
[34] = system: OVCAR-8 ovarian
[35] = system: PC-3 prostate
[36] = system: RPMI-8226 leukemia
[37] = system: RXF 393 renal
[38] = system: SF-268 CNS
[39] = system: SF-295 CNS
[40] = system: SF-539 CNS
[41] = system: SK-MEL-28 melanoma
[42] = system: SK-MEL-5 melanoma
[43] = system: SK-OV-3 ovarian
[44] = system: SNB-19 CNS
[45] = system: SNB-75 CNS
[46] = system: SR leukemia
[47] = system: SW-620 colon
[48] = system: U251 CNS
[49] = system: UACC-257 melanoma
[50] = system: UACC-62 melanoma
[51] = system: UO-31 renal

COc1cc(/C=C/[N+](=O)[O-])c([N+](=O)[O-])cc1OC was tested. Which GI50 [1] did it give?
The GI50 was 1610 nM.

And the TGI [1]?
Its TGI is 2950 nM.

And the GI50 [2]?
The GI50 was 3030 nM.

And the TGI [2]?
Its TGI is 11900 nM.

And the GI50 [3]?
Its GI50 is 3380 nM.

What about the TGI [3] of the same compound?
Its TGI is 10300 nM.

And the GI50 [4]?
Its GI50 is 1560 nM.

And the TGI [4]?
The TGI was 2900 nM.

And the GI50 [5]?
The GI50 was 1700 nM.

And the TGI [5]?
The TGI was 7170 nM.

What about the GI50 [6] of the same compound?
Its GI50 is 2130 nM.

And the TGI [6]?
Its TGI is 6070 nM.

And the GI50 [7]?
Its GI50 is 1160 nM.

And the TGI [7]?
The TGI was 2430 nM.

What about the GI50 [8] of the same compound?
Its GI50 is 1580 nM.

What about the TGI [8] of the same compound?
The TGI was 2930 nM.

And the GI50 [9]?
The GI50 was 8980 nM.

And the TGI [9]?
The TGI was 22600 nM.

What about the GI50 [10] of the same compound?
The GI50 was 1730 nM.

And the TGI [10]?
The TGI was 3220 nM.

What about the GI50 [11] of the same compound?
Its GI50 is 977 nM.

What about the TGI [11] of the same compound?
The TGI was 2140 nM.

And the GI50 [12]?
Its GI50 is 1330 nM.

What about the TGI [12] of the same compound?
The TGI was 4490 nM.

What about the GI50 [13] of the same compound?
Its GI50 is 1320 nM.

What about the TGI [13] of the same compound?
The TGI was 5710 nM.

What about the GI50 [14] of the same compound?
Its GI50 is 2910 nM.

What about the TGI [14] of the same compound?
The TGI was 8740 nM.

What about the GI50 [15] of the same compound?
The GI50 was 2050 nM.

What about the TGI [15] of the same compound?
Its TGI is 4270 nM.

And the GI50 [16]?
The GI50 was 1880 nM.

What about the TGI [16] of the same compound?
The TGI was 7450 nM.

What about the GI50 [17] of the same compound?
Its GI50 is 2550 nM.

And the TGI [17]?
Its TGI is 11900 nM.

What about the GI50 [18] of the same compound?
Its GI50 is 1640 nM.

What about the TGI [18] of the same compound?
Its TGI is greater than 100000 nM.

What about the GI50 [19] of the same compound?
Its GI50 is 1930 nM.

And the TGI [19]?
The TGI was 3920 nM.

And the GI50 [20]?
The GI50 was 1680 nM.

What about the TGI [20] of the same compound?
The TGI was 3050 nM.

What about the GI50 [21] of the same compound?
The GI50 was 1600 nM.

And the TGI [21]?
Its TGI is 2980 nM.

What about the GI50 [22] of the same compound?
The GI50 was 1710 nM.

What about the TGI [22] of the same compound?
Its TGI is 3380 nM.

What about the GI50 [23] of the same compound?
Its GI50 is 1120 nM.

And the TGI [23]?
Its TGI is 2730 nM.

What about the GI50 [24] of the same compound?
Its GI50 is 1700 nM.

What about the TGI [24] of the same compound?
Its TGI is 3460 nM.

What about the GI50 [25] of the same compound?
Its GI50 is 2170 nM.

What about the TGI [25] of the same compound?
The TGI was 7510 nM.

And the GI50 [26]?
Its GI50 is 2210 nM.

And the TGI [26]?
The TGI was 9110 nM.

And the GI50 [27]?
The GI50 was 2630 nM.

And the TGI [27]?
Its TGI is 7680 nM.

And the GI50 [28]?
Its GI50 is 2120 nM.

What about the TGI [28] of the same compound?
Its TGI is 4940 nM.

And the GI50 [29]?
The GI50 was 2330 nM.

What about the TGI [29] of the same compound?
Its TGI is 5670 nM.

What about the GI50 [30] of the same compound?
The GI50 was 2850 nM.

What about the TGI [30] of the same compound?
The TGI was 10100 nM.

And the GI50 [31]?
Its GI50 is 1300 nM.

And the TGI [31]?
Its TGI is 2570 nM.

And the GI50 [32]?
The GI50 was 1570 nM.

What about the TGI [32] of the same compound?
The TGI was 2930 nM.

What about the GI50 [33] of the same compound?
The GI50 was 1980 nM.

And the TGI [33]?
The TGI was 3980 nM.

And the GI50 [34]?
Its GI50 is 2500 nM.

And the TGI [34]?
Its TGI is 9460 nM.

And the GI50 [35]?
The GI50 was 2300 nM.

And the TGI [35]?
The TGI was 5700 nM.

And the GI50 [36]?
The GI50 was 2530 nM.

And the TGI [36]?
The TGI was 5740 nM.

What about the GI50 [37] of the same compound?
The GI50 was 1380 nM.

And the TGI [37]?
Its TGI is 2670 nM.

What about the GI50 [38] of the same compound?
Its GI50 is 2710 nM.

What about the TGI [38] of the same compound?
Its TGI is 11300 nM.

And the GI50 [39]?
The GI50 was 6720 nM.

And the TGI [39]?
Its TGI is 22100 nM.

And the GI50 [40]?
The GI50 was 3270 nM.

And the TGI [40]?
Its TGI is 84700 nM.

What about the GI50 [41] of the same compound?
Its GI50 is 2060 nM.

And the TGI [41]?
The TGI was 4720 nM.

And the GI50 [42]?
The GI50 was 3390 nM.

And the TGI [42]?
Its TGI is 12300 nM.

And the GI50 [43]?
The GI50 was 12800 nM.

What about the TGI [43] of the same compound?
Its TGI is 25400 nM.

What about the GI50 [44] of the same compound?
The GI50 was 6000 nM.

What about the TGI [44] of the same compound?
The TGI was 19800 nM.

And the GI50 [45]?
Its GI50 is 2250 nM.

And the TGI [45]?
Its TGI is 7560 nM.

And the GI50 [46]?
The GI50 was 1600 nM.

What about the TGI [46] of the same compound?
Its TGI is 8240 nM.

What about the GI50 [47] of the same compound?
The GI50 was 785 nM.

And the TGI [47]?
Its TGI is 2260 nM.

What about the GI50 [48] of the same compound?
Its GI50 is 1920 nM.

What about the TGI [48] of the same compound?
The TGI was 5350 nM.

What about the GI50 [49] of the same compound?
Its GI50 is 2910 nM.

And the TGI [49]?
The TGI was 11900 nM.

What about the GI50 [50] of the same compound?
Its GI50 is 2340 nM.

What about the TGI [50] of the same compound?
Its TGI is 7140 nM.

And the GI50 [51]?
Its GI50 is 1360 nM.

What about the TGI [51] of the same compound?
The TGI was 2810 nM.
